# Data from US9814736B2, “Use of 2-methylene-19-nor-(20S)-1α,25-dihydroxyvitamin D3 and calcimimetics to treat secondary hyperparathyroidism” (Wisconsin Alumni Research Foundation, priority 2014, dated 2017).
# Entries after “also recorded” stand apart in the source; their conditions may differ. Where two headings read alike, the source gives them in different places.
# Assays:
# [1] = test system: cultured bovine parathyroid cells; conditions: cited from earlier work
# PTH [2] = assay: Phase 2B double-blind, randomized, placebo-controlled study in hemodialysis patients: efficacy (serum iPTH); type: in vivo, human
# Description: FIG. 3. Study schema for study participants. Participants discontinued use of the active vitamin D analogue (AVD) and cinacalcet (if applicable) prior to a washout period and subsequent administration of placebo or DP001 (440 ng, 3×/wk, for up to 12 weeks).
# FIG. 6. Percentage of subjects achieving primary endpoint of two consecutive ≧30% decrease from his/her averaged baseline iPHT level during the 12-week treatment period. Pre-dialysis serum iPTH levels were measured using the Access Intact iPTH Assay from Beckman Coulter (p<0.0001, Fisher's exact test).
# FIG. 7. Secondary efficacy endpoint as measured as the mean percentage change in serum iPTH from the averaged baseline value to the average of the last 2 on-treatment values. Data are presented as mean±SEM. p<0.0001, One-way ANOVA.
# (§1) Subjects were administered DP001 (2MD) or placebo accordingly the study schema of FIG. 3. Subject disposition is illustrated in FIG. 4. As indicated, 129 subject were screened. Of these, 62 were enrolled and 67 were screen failures. Of the 62 enrollees, 28 were administered a placebo and 34 were administered DP001 (440 ng, 3×/wk for up to 12 weeks). Of the 28 enrollees who were administered the placebo, 22 completed the 12 week study and 6 discontinued for reasons illustrated. Of the 34 enrollees who were administered DP001, 31 completed the 12 week study and 3 discontinued for reasons illustrated.
# The Primary Efficacy Endpoint was the proportion of subjects who achieved two consecutive ≧30% decrease from his/her Averaged Baseline iPTH level during the 12-week treatment period. (See FIG. 6). Pre-dialysis serum iPTH levels were measured using the Access Intact iPTH Assay from Beckman Coulter (p<0.0001, Fisher's exact test).
# The secondary efficacy endpoint was the mean percentage change in serum iPTH from the Averaged Baseline value to the average of the last 2 on-treatment values. Data are presented in FIG. 7 as mean±SEM. p<0.0001, One-way ANOVA.
# PTH [3] = assay: Phase 2A open-label dose-ranging study of DP001 in hemodialysis patients; type: in vivo, human; conditions: dialysis patients, orally 3 times weekly for 4 weeks
# Description: FIG. 1. Change in plasma iPTH (%) versus concentration of DP001 (2MD). Chronic kidney disease—stage 5 patients were given DP001 at the indicated dose orally 3 times weekly for 4 weeks. Data are presented as mean±SEM. Plasma iPTH levels were measured using the Immulite Intact iPTH Assay from Siemens Healthcare Diagnostics.
# FIG. 2. Safety parameter versus concentration of DP001 (2MD) for patients of FIG. 1. Data are presented as mean (standard deviation (SD)).
# A Phase 2A, open-label, dose-ranging study of DP001 in hemodialysis patients was conducted to determine a starting dose of DP001 for the Phase 2B, randomized, placebo-controlled study described in this Example. […] (See FIGS. 1 and 2). Based on the results in FIGS. 1 and 2, an efficacious and safe starting dose of 440 ng was chosen. Data are presented as mean±SEM. Plasma iPTH levels were measured using the Immulite Intact iPTH Assay from Siemens Healthcare Diagnostics.
# [4] = Phase 2B double-blind, randomized, placebo-controlled study in hemodialysis patients: safety; type: in vivo, human
# Description: FIG. 9. Study enrollees exceeding safety threshold values for iPTH, Ca, and P.
# FIG. 10. Number of adverse events (AEs) and serious adverse events (SAEs) for study enrollees.
# as §1
# The remaining 8 subjects were only dose-adjusted downward, indicating a starting dose lower than 440 ng would have been sufficient to suppress PTH. […] Only one patient receiving DP001 (2MD) had two consecutive corrected serum calcium values>10.5 mg/dL.
# [5] = test system: MRL/lpr mouse model of systemic lupus erythematosus; conditions: cited from earlier work
# serum PTH [6] = conditions: uremic dogs; cited from earlier work
# serum PTH [7] = conditions: uremic rats; cited from earlier work
smiles,measurement,setting,value
"C=C1C(=CC=C2CCCC3(C)C2CCC3C(C)CCCCCC(C)(C)O)CC(O)CC1O (stereo not shown) [1,25-(OH)2-24-dihomo-D3]",suppression of PTH secretion relative to calcitriol,[1],nearly as effective as calcitriol
"C=C1[C@H](O)CC(=C/C=C2\CCC[C@@]3(C)C2CCC3[C@@H](C)CCCC(C)(C)O)C[C@H]1O (stereo partly drawn) [DP001, 2-methylene-19-nor-(20S)-1α,25-dihydroxyvitamin D3]",subjects achieving primary endpoint (two consecutive ≧30% decrease from averaged baseline iPTH),"PTH [2]; CKD-5D, 3x weekly oral, starting dose 440 ng, 12-week treatment, p<0.0001",78 % of subjects
same,reduction of serum iPTH (secondary endpoint: mean percentage change from averaged baseline),"PTH [2]; CKD-5D, 3x weekly oral, starting dose 440 ng, by 12 weeks, p<0.0001",46%
same,PTH lowering in subjects previously treated with AVD and cinacalcet (calcimimetic),"PTH [2]; DP001 alone, CKD-5D patients previously on cinacalcet",effectively reduced PTH levels; also recorded: successfully treats SHPT in patients previously taking a calcimimetic
same,change in serum calcium,PTH [3],without changing serum calcium
same,suppression of PTH (plasma iPTH),PTH [3],suppresses PTH in dialysis patients in a dose-dependent fashion
same,serum calcium values,[4]; 12-week treatment,remained in the normal range
same,patients with two consecutive corrected serum calcium values >10.5 mg/dL,[4]; 34 enrollees on DP001,one
same,subjects that reached the safety threshold for PTH,"[4]; 34 enrollees on DP001, 440 ng 3x/wk up to 12 weeks",14 subjects
same,adverse event reporting versus placebo,[4]; between treatment groups,no significant differences in adverse event reporting between treatment groups
same,patients surpassing corrected-serum calcium and phosphorus product safety threshold,[4]; both had high serum phosphorus at baseline,two
same,serious adverse events (SAEs) related to drug,[4]; judged by investigators,No serious adverse events (SAEs) were judged by the investigators to be related to DP001
"C=C1/C(=C\C=C2/CCC[C@]3(C)[C@@H]([C@H](C)CCCC(C)(C)O)CC[C@@H]23)C[C@@H](O)C[C@@H]1O [calcitriol, 1α,25-(OH)2D3]",hypercalcemia,[5]; accompanying calcitriol treatment,severe hypercalcemia always accompanied this treatment
same,proteinuria,[5]; calcitriol administered through the diet,completely prevents proteinuria
C=C1/C(=C\C=C2/CCC[C@]3(C)[C@@H]([C@H](C)OCCC(C)(C)O)CC[C@@H]23)C[C@@H](O)C[C@@H]1O [22-oxacalcitriol],suppression of PTH secretion relative to calcitriol,[1],nearly as effective as calcitriol
same,suppression of serum PTH,serum PTH [6],suppress serum PTH
same,suppression of serum PTH,serum PTH [7],suppress serum PTH
"C=C1C(=CC=C2CCCC3(C)C2CCC3C(C)C=CCCCCC(C)(C)O)CC(O)CC1O (stereo not shown) [1,25-(OH)2-24-trihomo-22-ene-D3]",suppression of PTH secretion relative to calcitriol,[1],nearly as effective as calcitriol
"C=C1/C(=C\C=C2/CCC[C@]3(C)C([C@H](C)CC#CC(C)(C)O)=CC[C@@H]23)C[C@@H](O)C[C@@H]1O [1,25-(OH)2-16-ene-23-yne-D3]",suppression of PTH secretion relative to calcitriol,[1],nearly as effective as calcitriol
